≈ marks a conversion by molar mass, not a printed value.
Legend:
[1] = system: Pseudomonas aeruginosa; test: Antibacterial activity against TriABC expressing MexAB, MexCD, MexEF, MexXY deleted Pseudomonas aeruginosa PA405 after 24 hrs by geometric microdilution method; type: functional
[2] = system: Pseudomonas aeruginosa; test: Antibacterial activity against MexXY expressing Pseudomonas aeruginosa PT629 after 24 hrs by geometric microdilution method; type: functional
[3] = system: Pseudomonas aeruginosa; test: Inhibition of protein synthesis in Pseudomonas aeruginosa ATCC 27853 assessed as decrease in incorporation of L-[4,5-3H]leucine at 10 times MIC by liquid scintillation counter relative to control; type: functional
[4] = system: Escherichia coli; test: Antibacterial activity against R-methylase expressing Escherichia coli 06AB003 after 24 hrs by geometric microdilution method; type: functional
[5] = system: Escherichia coli; test: Antibacterial activity against ANT2'-2a expressing Escherichia coli L58058.1 after 24 hrs by geometric microdilution method; type: functional
[6] = system: Pseudomonas aeruginosa; test: Antibacterial activity against MexXY expressing Pseudomonas aeruginosa PA22 after 24 hrs by geometric microdilution method; type: functional
[7] = system: Pseudomonas aeruginosa; test: Antibacterial activity against MexEF expressing Pseudomonas aeruginosa PA03 after 24 hrs by geometric microdilution method; type: functional
[8] = system: Citrobacter amalonaticus; test: Antibacterial activity against R-methylase expressing Citrobacter amalonaticus 06AB0010 after 24 hrs by geometric microdilution method; type: functional
[9] = system: Pseudomonas aeruginosa; test: Antibacterial activity against MexAB, MexCD, MexEF, MexXY, TriABC deleted Pseudomonas aeruginosa PA406 after 24 hrs by geometric microdilution method; type: functional
[10] = system: Klebsiella aerogenes; test: Antibacterial activity against R-methylase expressing Enterobacter aerogenes 06AB008 after 24 hrs by geometric microdilution method; type: functional
[11] = system: Pseudomonas aeruginosa; test: Antibacterial activity against MexAB expressing Pseudomonas aeruginosa PA21 after 24 hrs by geometric microdilution method; type: functional
[12] = system: Pseudomonas aeruginosa; test: Antibacterial activity against MexCD expressing Pseudomonas aeruginosa PA01 after 24 hrs by geometric microdilution method; type: functional
[13] = system: Pseudomonas aeruginosa; test: Antibacterial activity against Pseudomonas aeruginosa ATCC 27853 after 24 hrs by geometric microdilution method; type: functional
[14] = system: Acinetobacter lwoffii; test: Antibacterial activity against […] expressing Acinetobacter lwoffii AI.88-483 after 24 hrs by geometric microdilution method; type: functional
[15] = system: Pseudomonas aeruginosa; test: Antibacterial activity against Pseudomonas aeruginosa PAO1 after 24 hrs by geometric microdilution method; type: functional
[16] = molecular target: Nucleic Acid; test: Binding affinity to bacterial rRNA A site at 200 uM by isothermal titration calorimetry; type: nucleic-acid assay
[17] = system: Pseudomonas aeruginosa; test: Antibacterial activity against AAC6'-2a expressing Pseudomonas aeruginosa F03 after 24 hrs by geometric microdilution method; type: functional
[18] = system: Klebsiella pneumoniae; test: Antibacterial activity against Klebsiella pneumoniae ATCC 700603 after 24 hrs by geometric microdilution method; type: functional
[19] = system: Escherichia coli; test: Antibacterial activity against AAC6'-2b expressing Escherichia coli PAZ505H8101 after 24 hrs by geometric microdilution method; type: functional
[20] = system: Staphylococcus aureus; test: Antibacterial activity against aminoglycoside-3'-O-phosphoryltransferase expressing Staphylococcus aureus after 24 hrs by geometric microdilution method; type: functional
[21] = system: Pseudomonas aeruginosa; test: Inhibition of protein synthesis in Pseudomonas aeruginosa ATCC 27853 assessed as decrease in incorporation of L-[4,5-3H]leucine at MIC by liquid scintillation counter relative to control; type: functional
[22] = system: Staphylococcus aureus; test: Antibacterial activity against MsrA pump expressing Staphylococcus aureus after 24 hrs by geometric microdilution method; type: functional
[23] = system: Staphylococcus aureus; test: Antibacterial activity against aminoglycoside-6'-N-acetyltransferase/2''-O-phosphoryltransferase expressing Staphylococcus aureus after 24 hrs by geometric microdilution method; type: functional
[24] = system: Acinetobacter lwoffii; test: microbe, parasite or virus in culture; details: ATCC 17925, 24 h
Description: Antibacterial activity against Acinetobacter lwoffii ATCC 17925 after 24 hrs by geometric microdilution method

[25] = system: Staphylococcus aureus; test: Antibacterial activity against NorA pump expressing Staphylococcus aureus after 24 hrs by geometric microdilution method; type: functional
[26] = system: Staphylococcus aureus; test: Antibacterial activity against Staphylococcus aureus ATCC 25923 after 24 hrs by geometric microdilution method; type: functional; details: ATCC 25923, 24 h
[27] = system: Staphylococcus aureus; test: Antibacterial activity against methicillin-resistant Staphylococcus aureus ATCC 33592 clinical isolate after 24 hrs by geometric microdilution method; type: functional; details: ATCC 33592, 24 h
[28] = system: Staphylococcus aureus; test: Antibacterial activity against vancomycin-resistant Staphylococcus aureus VRS-2 after 24 hrs by geometric microdilution method; type: functional; details: VRS-2, 24 h
[29] = system: Escherichia coli; test: microbe, parasite or virus in culture; details: ATCC 25922, 24 h
Description: Antibacterial activity against Escherichia coli ATCC 25922 after 24 hrs by geometric microdilution method

[30] = system: Staphylococcus aureus; test: Antibacterial activity against aminoglycoside-4'-O-phosphoryltransferase expressing Staphylococcus aureus after 24 hrs by geometric microdilution method; type: functional

Row | Compound | MIC ([1]; PA405, 24 h) | MIC ([2]; PT629, 24 h) | inhibition (INH) [3] | MIC ([5]; L58058.1, 24 h) | MIC ([6]; PA22, 24 h) | MIC ([7]; PA03, 24 h) | MIC ([9]; PA406, 24 h) | MIC ([11]; PA21, 24 h) | MIC ([12]; PA01, 24 h) | MIC ([13]; ATCC 27853, 24 h) | MIC ([14]; AI.88-483, 24 h) | MIC ([15]; PAO1, 24 h) | Kd [16] | MIC ([17]; F03, 24 h) | MIC ([18]; ATCC 700603, 24 h) | MIC ([19]; PAZ505H8101, 24 h) | further results
1 | NC[C@H]1O[C@H](O[C@H]2[C@H](O)[C@@H](OCc3ccc4ccccc4c3)[C@H](N)C[C@@H]2N)[C@H](N)[C@@H](OCc2ccc3ccccc3c2)[C@@H]1OCc1ccc2ccccc2c1 | 4 µg/mL (≈ 5.38 µM) | 4 µg/mL (≈ 5.38 µM) | 60% | 4 µg/mL (≈ 5.38 µM) | 4 µg/mL (≈ 5.38 µM) | 4 µg/mL (≈ 5.38 µM) | 4 µg/mL (≈ 5.38 µM) | 4 µg/mL (≈ 5.38 µM) | 4 µg/mL (≈ 5.38 µM) | 8 µg/mL (≈ 10.8 µM) | 32 µg/mL (≈ 43.1 µM) | 8 µg/mL (≈ 10.8 µM) | 10 µM | 8 µg/mL (≈ 10.8 µM) | 16 µg/mL (≈ 21.5 µM) | 4 µg/mL (≈ 5.38 µM) | MIC ([4]; 06AB003, 24 h): 4 µg/mL (≈ 5.38 µM); MIC ([8]; 06AB0010, 24 h): 4 µg/mL (≈ 5.38 µM); MIC ([10]; 06AB008, 24 h): 4 µg/mL (≈ 5.38 µM)
2 | GENTAMICIN | – | – | – | – | – | – | – | – | – | – | – | – | – | – | – | – | MIC [1]: < 0.125 µg/mL; MIC [2]: 4 µg/mL; MIC [4]: > 128 µg/mL; MIC [5]: 64 µg/mL; MIC [6]: 4 µg/mL; MIC [7]: 1 µg/mL; MIC [8]: > 128 µg/mL; MIC [9]: < 0.125 µg/mL; MIC [10]: > 128 µg/mL; MIC [11]: 1 µg/mL; MIC [12]: 1 µg/mL; MIC [13]: 1 µg/mL; MIC [14]: 4 µg/mL; MIC [15]: 2 µg/mL; MIC [17]: > 28 µg/mL; MIC [18]: 8 µg/mL; MIC [19]: 1 µg/mL
3 | NC[C@@H]1O[C@H](O[C@H]2[C@@H](O)[C@H](O[C@@H]3[C@@H](O)[C@H](N)C[C@H](N)[C@H]3O[C@H]3O[C@H](CN)[C@@H](O)[C@H](O)[C@H]3N)O[C@@H]2CO)[C@H](N)[C@@H](O)[C@@H]1O [FRAMYCETIN] | 2 µg/mL (≈ 3.25 µM) | 32 µg/mL (≈ 52.1 µM) | 40% | 32 µg/mL (≈ 52.1 µM) | 32 µg/mL (≈ 52.1 µM) | 4 µg/mL (≈ 6.51 µM) | 4 µg/mL (≈ 6.51 µM) | 4 µg/mL (≈ 6.51 µM) | 8 µg/mL (≈ 13 µM) | 64 µg/mL (≈ 104 µM) | > 128 µg/mL | 4 µg/mL (≈ 6.51 µM) | 1.55 µM | 128 µg/mL (≈ 208 µM) | 16 µg/mL (≈ 26 µM) | 4 µg/mL (≈ 6.51 µM) | MIC [20]: > 128 µg/mL; inhibition (INH) [21]: 40%; MIC [22]: 2 µg/mL (≈ 3.25 µM); MIC [23]: 1 µg/mL (≈ 1.63 µM); MIC [24]: 0.5 µg/mL (≈ 0.813 µM); MIC [25]: 1 µg/mL (≈ 1.63 µM); MIC [26]: 2 µg/mL (≈ 3.25 µM); MIC [27]: > 128 µg/mL; MIC [28]: 128 µg/mL (≈ 208 µM); MIC [29]: 2 µg/mL (≈ 3.25 µM); MIC [30]: 32 µg/mL (≈ 52.1 µM)
